Test results: patent US20190327965A1, “AGENTS AND METHODS FOR TREATMENT OF PATHOGENS” (Hexima Limited, priority 2014, published 2019)
Bridge positions count the residues as written; N and C are the ends. Peptide text beside a SMILES is read from it.

Assays:
[1] = system: Colletotrichum graminicola
Saccharomyces cerevisiae = assay: Growth inhibition by hairpin peptide alone, Saccharomyces cerevisiae; assay type: cell-based; conditions: hairpin peptide on its own
Text: Some α-hairpinin and β-hairpin peptides show efficacy on their own against pathogens at a concentration higher than the concentration used in a combination with a plant defensin.

In the case of CC(C)[C@@H]1NC(=O)[C@H](CCCNC(=N)N)NC(=O)[C@H](Cc2ccccc2)NC(=O)[C@@H](NC(=O)[C@H](Cc2c[nH]c3ccccc23)NC(=O)[C@H](CCCNC(=N)N)NC(=O)[C@@H](N)CCCNC(=N)N)CSSC[C@@H](C(=O)N[C@@H](CCCNC(=N)N)C(N)=O)NC(=O)[C@H](CCCCN)NC(=O)[C@H](CCCNC(=N)N)NC(=O)[C@H](Cc2ccc(O)cc2)NC(=O)[C@@H]2CSSC[C@H](NC1=O)C(=O)N[C@@H](Cc1ccc(O)cc1)C(=O)N[C@@H](CCCNC(=N)N)C(=O)NCC(=O)N[C@@H](Cc1ccccc1)C(=O)N2 [Polyphemusin I] (H-RRWCFRVCYRGFCYRKCR-NH2; disulfide 4-17, 8-13; N-terminus and C-terminus assumed), the IC50 [1] is reported as 6 µM, the IC50 (Fusarium graminearum) is reported as 3 µM and the IC50 (Trichophyton rubrum) is reported as 1 µM. The IC50 (Candida albicans) was 4 µM.

With CSCC[C@@H]1NC(=O)[C@H](CCCNC(=N)N)NC(=O)[C@@H](NC(=O)[C@H](Cc2c[nH]c3ccccc23)NC(=O)[C@H](CCC(N)=O)NC(=O)[C@H](CC(C)C)NC(=O)[C@H](CC(=O)O)NC(=O)CNC(=O)[C@@H](N)CCCCN)CSSC[C@@H](C(=O)N[C@@H](CCCNC(=N)N)C(=O)N[C@@H](CCC(N)=O)C(=O)N[C@@H](CCCNC(=N)N)C(=O)N[C@@H](Cc2c[nH]cn2)C(=O)N[C@@H](CCCNC(=N)N)C(=O)NCC(=O)O)NC(=O)[C@H](CCC(=O)O)NC(=O)[C@H](CCCNC(=N)N)NC(=O)[C@H](CCC(=O)O)NC(=O)[C@@H]2CSSC[C@H](NC(=O)CNC1=O)C(=O)N[C@@H](CCC(N)=O)C(=O)N[C@@H](Cc1c[nH]c3ccccc13)C(=O)N[C@@H](CCC(N)=O)C(=O)N[C@@H](Cc1ccc(O)cc1)C(=O)NCC(=O)N[C@@H](CCCCN)C(=O)N[C@@H](CC(=O)O)C(=O)N[C@@H](CCC(N)=O)C(=O)NCC(=O)N[C@@H](CCCNC(=N)N)C(=O)N[C@@H](CCCNC(=N)N)C(=O)N[C@@H](CO)C(=O)N[C@@H](CCC(=O)O)C(=O)N2 [Sit_HPN_100A] (H-KGDLQWCRMGCQWQYGKDQGRRSECERECRQRHRG-OH; disulfide 7-29, 11-25 (inferred); N-terminus and C-terminus assumed) the IC50 [1] was 14 µM, the IC50 (Fusarium graminearum) was 8 µM and the IC50 (Trichophyton rubrum) was 20 µM. It also gave an IC50 (Candida albicans) of 8 µM and an IC50 (Saccharomyces cerevisiae) of 8 µM.
